The text below walks through data of publication PMC8705783, “The Effect of Conjugation with Octaarginine, a Cell-Penetrating Peptide on Antifungal Activity of Imidazoacridinone Derivative” (International Journal of Molecular Sciences, 2021).

≈ marks a conversion by molar mass, not a printed value. Like-named read-outs stand apart in the source and are kept apart here.

Test [1] deals with C. albicans ATCC 10231 cells. Nature of the test: Fluorescence microscopy of uptake and accumulation. As to conditions: 256 μg mL^−1 (8 × MFC of Compound 1-R8).
Experimental: Candida albicans ATCC 10231 strain were grown in the YPG medium overnight (16–18 h) at 30 °C, washed twice with sterile phosphate-buffered saline (PBS) and resuspended in RPMI 1640 at a cell density of 2 × 10^7 cells mL^−1. The inoculum (5 mL) was added to 5 mL RPMI 1640 with 256 μg mL^−1 of tested compounds. After appropriate period of time, 2 mL of cell suspension was washed three times with sterile phosphate-buffered saline (PBS). If appropriate, cells where resuspended in 1 mL of PBS and 5 μL of 2 mg mL^−1 propidium iodide (PI, Sigma-Aldrich, St. Louis, MO, USA) were added and incubated for 30 min and then rinsed three times with PBS buffer. After that, cells were resuspended in 5 μL 90% (by volume) glycerol/10% (by volume) 1 × PBS and transferred to a microscopic slide. The cells were examined with the Olympus BX-60 fluorescence microscope (λex = 330–385 nm, λem ≥ 420 nm, lens × 40) equipped with the Olympus XC50 digital camera (Olympus Corporation, Tokyo, Japan) or LSM800 T-PMT confocal microscope with a CCD camera (ZEISS, Göttingen, Germany). Images were analysed and processed with cellSens Dimension and ZEN Blue software [47].
The subject of test [2] is reference strains. Nature of the test: Antifungal activity, summary over reference strains. Details: key to Antifungal Activity (level): (−) Means no antifungal activity; (±) low activity; (+) moderate activity; (++) high activity at the concentration mentioned. The class given is cell-based.
Test [3] has as its system Candida krusei ATCC 6258. As to the kind of experiment: microbe, parasite or virus in culture. As to conditions: Pichia kudriavzevii, ATCC6258, 24 h, pH 7.
For test [4], the system named is Candida albicans ATCC 10231. Nature of the test: microbe, parasite or virus in culture.
In test [5] the target is T1, yeast topoisomerase II (Saccharomyces cerevisiae, UniProt P06786). Nature of the test: Formation of cleavable complexes in vitro. Format: biochemical. As to conditions: 0.1-10 μM, pBR322 plasmid DNA. Here is the method:
Cleavage assay of yeast topoisomerase II was performed according to the formation of cleavable complexes kit from Inspiralis. The experimental conditions were the same as for the relaxation assay except for the amount of yeast topoisomerase II (16 times more enzyme was used). The reaction was initiated by the addition of the enzyme and allowed to proceed for 10 min at 30 °C. Then, 0.35% SDS and 0.3 mg mL^−1 proteinase K (A&A Biotechnology, Gdynia, Poland) was added, and the probes were incubated in 56 °C for 1 h. The reaction was terminated by the addition of 100 mM Tris-HCl pH 8, 10 mM EDTA, 0.5 mg mL^−1 Bromophenol Blue. Extraction with chloroform:isoamyl alcohol (24:1, by volume) was performed, and mixtures were analysed on the 1.2% agarose gel with 0.5 µg mL^−1 ethidium bromide in 1x TAE buffer, 18 h, 1.1 V cm^−1. Gel was photographed with the Gel Doc XR+Gel Documentation System.

The test system of test [6] is Candida glabrata ATCC 90030. Nature of the test: microbe, parasite or virus in culture. As to conditions: Nakaseomyces glabratus, ATCC90030, 24 h, pH 7.
For test [7], the system named is Candida parapsilosis ATCC 22019.
The test system of test [8] is Candida albicans ATCC 10231.
Test [9] has as its system Candida krusei ATCC 6258.
The test system of test [10] is Candida albicans Gu4. As to the kind of experiment: microbe, parasite or virus in culture.
Test [11] has as its system Saccharomyces cerevisiae ATCC 9763.
Test [12] concerns Candida albicans F2. As to the kind of experiment: microbe, parasite or virus in culture.
The subject of test [13] is HEK-293. Nature of the test: cells. The class given is cell-based, human. The protocol: (§1) The investigated compounds were screened for their in vitro antiproliferative activity towards a human embryonic kidney cell line (HEK-293) and human liver cancer cell line (HEPG2) using colorimetric MTT.
(§2) The human embryonic kidney cell line (HEK-293) and human liver cancer cell line (HEPG2) were purchased from ATCC (Manassas, Virginia, USA). HEK-293 was cultured in Dulbecco’s Modified Eagle Medium (Corning, NY, USA) and HEPG2 in Minimum Essential Medium Eagle (Corning, NY, USA). For each cell line, the culture medium was supplemented with 10% fetal bovine serum, 2 mM L-glutamine, and antibiotics: penicillin 62.6 µg mL^−1 and streptomycin 40 µg mL^−1. The cells were cultured at the humidified atmosphere of 5% CO2/95% air and routinely tested for Mycoplasma contamination.
(§3) Antiproliferative activity of the compounds was determined by (3-(4,5-dimethylthiazol-2-yl)-2,5-diphenyltetrazolium bromide (MTT, Sigma-Aldrich, St. Louis, MO, USA) assay, which involves the assessment of cell viability by the measurement of the cellular oxidoreductase activity. Briefly, cells were seeded into 96-well culture plates and were allowed to adhere overnight. The investigated compounds were dissolved in DMSO and added to wells (1% final concentration of DMSO) in various concentrations. After 72 h incubation, 20 µL of MTT solution in PBS (4 mg mL^−1) was added to each well, and plates were incubated for an additional 3h in standard culture conditions. After that, the medium was aspirated, and formazan crystals were dissolved in DMSO. The absorbance was determined at 570 nm with a microplate reader (Asys UVM 340 Microplate Reader, Biochrom, Cambridge, UK). All experiments were performed three times independently in triplicate.

Test [14] relates to HEPG2. Nature of the test: cells. Format: cell-based, human. Here is the method:
as §1, §2, §3

Test [15] concerns Candida parapsilosis ATCC 22019. Nature of the test: microbe, parasite or virus in culture. As to conditions: Lodderomyces parapsilosis, ATCC22019, 24 h, pH 7.
The subject of test [16] is Candida albicans F5. As to the kind of experiment: microbe, parasite or virus in culture.
In test [17] the test system is Candida albicans B4. Nature of the test: microbe, parasite or virus in culture.
The subject of test [18] is Candida albicans Gu5. As to the kind of experiment: microbe, parasite or virus in culture.
The subject of test [19] is Candida glabrata ATCC 90030.
In test [20] the test system is Candida albicans B3. Nature of the test: microbe, parasite or virus in culture.
The test system of test [21] is Saccharomyces cerevisiae ATCC 9763. As to the kind of experiment: microbe, parasite or virus in culture. As to conditions: ATCC9763, 24 h, pH 7.
The target in test [22] is T1, yeast topoisomerase II. As to the kind of experiment: Yeast topoisomerase II relaxation assay. The class given is biochemical. As to conditions: supercoiled pBR322, tested at 1-200 μM. Here is the method:
Due to the known activity of acridine and acridone derivatives as human topoisomerase inhibitors widely analysed for cancer chemotherapy, we decided to analyse the influence of Compound 1 as well as its R8 conjugate on the fungal equivalent of that enzyme. The relaxation of supercoiled plasmid DNA by yeast topoisomerase II (yTOPO II) was studied in the presence of different concentrations of both compounds.
The inhibition of yeast topoisomerase II was analysed according to the relaxation assay kit from Inspiralis (Inspiralis Limited, Norwich, UK). Briefly, 250 ng of supercoiled pBR322 DNA (Thermo Fisher Scientific, Waltham, MA, USA), 1 mM ATP (Inspiralis Limited, UK), and 1–200 μM of the analysed compound were mixed with reaction buffer (1 mM Tris-HCl (pH 7.9), 10 mM KCl, 0.5 mM MgCl2, 0.2 % (by volume) glycerol). The reaction was initiated by the addition of an enzyme, allowed to proceed at 30 °C for 30 min and terminated by addition of 40% (m/V) sucrose, 100 mM Tris-HCl pH 8, 10 mM EDTA, and 0.5 mg mL^−1 Bromophenol Blue. Two-step extraction with chloroform:isoamyl alcohol (24:1, by volume) and butanol water was performed and mixtures were analysed on 1% agarose gel in 1 × TAE buffer, 3h, 4.5 V cm^−1. Gel was stained in GelRed 3 × staining solution (Biotium, Fremont, CA, USA) for 30 min and photographed with Gel Doc XR+Gel Documentation System (Bio-Rad: Hercules, CA, USA).

The test system of test [23] is Candida albicans F2. As to conditions: F2, 12 h.
Test [24] concerns Candida albicans F5. As to conditions: F5, 12 h.
Test [25] concerns Candida albicans Gu5. As to conditions: Gu5, 12 h.
In test [26] the test system is Candida albicans B4. As to conditions: B4, 12 h.
Test [27] deals with reference and fluconazole-resistant clinical strains. As to conditions: 12 h.
For test [28], the system named is S. cerevisiae ATCC 9763. As to the kind of experiment: Minimal fungicidal concentration, spot assay. The class given is cell-based. As to conditions: minimal fungicidal concentration that kills 99% of cells. The protocol: (§4) To establish the possible mode of action for Compound 1-R8, we have analysed the killing activity and determined minimal fungicidal concentrations (MFCs) (Table 4). Additionally, killing kinetics analysis against pathogenic C. albicans ATCC 10231 was performed (Figure 2).
(§5) Minimum fungicidal concentrations (MFCs) were determined as described previously by spot assay. The MFC was determined as the lowest concentration of the test compound in which no recovery of microorganisms was observed.

Test [29] has as its system Candida albicans B3. As to conditions: B3, 12 h.
For test [30], the system named is Candida albicans Gu4. As to conditions: Gu4, 12 h.
For test [31], the system named is C. krusei DSM 6128. Nature of the test: microbe, parasite or virus in culture. As to conditions: DSM 6128. The class given is cell-based. Here is the method:
as §4, §5

Test [32] concerns C. glabrata DSM 11226. Nature of the test: microbe, parasite or virus in culture. Format: cell-based. As to conditions: DSM 11226. Here is the method:
as §4, §5

Test [33] relates to C. parapsilosis DSM 5784. Nature of the test: microbe, parasite or virus in culture. As to conditions: DSM 5784. Format: cell-based. The protocol:
as §4, §5

Test [34] has as its system C. albicans ATCC 10231. As to the kind of experiment: microbe, parasite or virus in culture. Format: cell-based. As to conditions: ATCC 10231. Here is the method: as §4, §5
Test [35] deals with T1, yeast topoisomerase II. Further details: method as in PMID 33572407. As to conditions: read-out: IC50 (yeast topoisomerase II relaxation); cited from earlier work.

T1 sequence (P06786 whole entry): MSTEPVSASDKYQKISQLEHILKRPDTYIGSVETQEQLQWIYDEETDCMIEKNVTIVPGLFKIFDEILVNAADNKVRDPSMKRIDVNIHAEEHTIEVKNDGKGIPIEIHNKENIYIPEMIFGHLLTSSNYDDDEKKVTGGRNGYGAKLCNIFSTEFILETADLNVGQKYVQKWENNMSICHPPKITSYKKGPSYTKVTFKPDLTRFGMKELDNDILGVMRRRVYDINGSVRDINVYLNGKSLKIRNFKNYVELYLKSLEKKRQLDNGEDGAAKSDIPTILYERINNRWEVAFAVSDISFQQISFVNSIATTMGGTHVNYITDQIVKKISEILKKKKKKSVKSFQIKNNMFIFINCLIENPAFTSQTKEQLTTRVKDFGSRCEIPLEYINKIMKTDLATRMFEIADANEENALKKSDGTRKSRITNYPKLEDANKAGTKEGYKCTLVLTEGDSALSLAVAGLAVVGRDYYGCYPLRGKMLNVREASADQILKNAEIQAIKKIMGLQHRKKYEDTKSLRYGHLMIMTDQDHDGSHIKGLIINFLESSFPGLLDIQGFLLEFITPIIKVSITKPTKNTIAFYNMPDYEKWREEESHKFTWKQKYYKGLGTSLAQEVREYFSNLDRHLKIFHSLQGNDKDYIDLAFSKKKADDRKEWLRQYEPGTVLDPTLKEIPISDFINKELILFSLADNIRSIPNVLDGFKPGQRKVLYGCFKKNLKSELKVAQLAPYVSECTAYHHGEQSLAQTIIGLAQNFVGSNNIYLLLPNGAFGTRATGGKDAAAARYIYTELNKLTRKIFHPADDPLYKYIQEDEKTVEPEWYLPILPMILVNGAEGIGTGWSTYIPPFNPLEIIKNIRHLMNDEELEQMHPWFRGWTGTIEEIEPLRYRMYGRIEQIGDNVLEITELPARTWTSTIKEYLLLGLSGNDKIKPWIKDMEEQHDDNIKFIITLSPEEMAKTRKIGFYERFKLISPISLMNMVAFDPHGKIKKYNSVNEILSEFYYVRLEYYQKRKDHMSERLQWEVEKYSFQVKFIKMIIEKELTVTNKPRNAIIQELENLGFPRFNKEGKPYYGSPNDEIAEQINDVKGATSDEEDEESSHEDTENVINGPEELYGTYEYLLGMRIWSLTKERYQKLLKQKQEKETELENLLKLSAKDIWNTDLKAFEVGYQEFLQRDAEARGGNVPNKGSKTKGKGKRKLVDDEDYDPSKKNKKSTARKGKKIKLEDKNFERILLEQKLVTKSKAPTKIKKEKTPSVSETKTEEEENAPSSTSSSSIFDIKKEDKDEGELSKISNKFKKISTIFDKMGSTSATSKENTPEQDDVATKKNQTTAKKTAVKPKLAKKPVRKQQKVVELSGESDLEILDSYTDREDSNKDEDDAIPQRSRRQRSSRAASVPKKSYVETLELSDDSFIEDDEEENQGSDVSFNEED

One may read the IC50 as the concentration that gives 50% inhibition. As for `NCCNc1ccc2ncn3c4ccc(O)cc4c(=O)c1c23` [Compound 1, 5-((2-Aminoethyl)amino)-8-hydroxy-6H-imidazo[4,5,1-de]acridin-6-one], the “uptake and accumulation in fungal cells” value in test [1] is “no significant accumulation”. Also, the “Antifungal Activity (level)” value in test [2] (Table 3) is listed as “−”. Also, the “antifungal activity” value in [2] (as reported in Table 1) is “no antifungal activity was observed”. In addition, the MIC90 in [3] was greater than 64 µg/mL; in [4] (ATCC10231), greater than 64 µg/mL; in [4] (ATCC10231, 24 h, pH 7), greater than 64 µg/mL; in test [6], greater than 64 µg/mL; in test [10], greater than 64 µg/mL; in test [12], greater than 64 µg/mL. For the same compound, the MIC90 in [15], in [16], in test [17], in test [18], in test [20] and in test [21] was greater than 64 µg/mL in each case. The “formation of DNA–yeast topoisomerase II cleavable complexes” value in [5] is “stimulated the formation of DNA–yeast topoisomerase II cleavable complexes”. In addition, the “IC50 HEK293/MIC90 (mycostatic selectivity index)” value in test [7] (HEK293 vs Candida parapsilosis ATCC 22019) is given as less than 0.0058; in test [8] (HEK293 vs Candida albicans ATCC 10231, MIC converted to micromolar), less than 0.0058; in test [9] (HEK293 vs Candida krusei ATCC 6258), less than 0.0058; in [11] (HEK293 vs Saccharomyces cerevisiae ATCC 9763), less than 0.0058; in [19] (HEK293 vs Candida glabrata ATCC 90030) it was less than 0.0058. For the same compound, the “IC50 HEPG2/MIC90 (mycostatic selectivity index)” value in [7] (HEPG2 vs Candida parapsilosis ATCC 22019), in test [8] (HEPG2 vs Candida albicans ATCC 10231), in [9] (HEPG2 vs Candida krusei ATCC 6258), in [11] (HEPG2 vs Saccharomyces cerevisiae ATCC 9763) and in [19] (HEPG2 vs Candida glabrata ATCC 90030) was less than 0.0038 throughout. The IC50 in [13] (Homo sapiens, HEK293, 72 h treatment, MTT, ± SD, read-out: IC50 (antiproliferative activity)) was determined as 550 ± 125 nM; in test [14] (Homo sapiens, HEPG2, 72 h treatment, MTT, ± SD, read-out: IC50 (antiproliferative activity)), 364 ± 13 nM. The “concentration that totally inhibited yeast topoisomerase II-mediated relaxation” value in test [22] was 50 µM.

Take `N=C(N)NCCC[C@H](NC(=O)[C@H](CCCNC(=N)N)NC(=O)[C@H](CCCNC(=N)N)NC(=O)[C@H](CCCNC(=N)N)NC(=O)[C@H](CCCNC(=N)N)NC(=O)[C@H](CCCNC(=N)N)NC(=O)[C@H](CCCNC(=N)N)NC(=O)[C@@H](N)CCCNC(=N)N)C(=O)NCCNc1ccc2ncn3c4ccc(O)cc4c(=O)c1c23` [Compound 1-R8]: the MIC90 was determined as 1 µg/mL (≈ 0.648 µM) in test [23]; 1 µg/mL (≈ 0.648 µM) in test [24]; 2 µg/mL (≈ 1.3 µM) in test [25]; 2 µg/mL (≈ 1.3 µM) in test [26]; 0.25 µg/mL (≈ 0.162 µM) in test [7] (ATCC 22019, 24 h, pH 7); 1 µg/mL (≈ 0.648 µM) in test [8] (ATCC 10231, 24 h, pH 7). The MIC90 amounted to 0.5 µg/mL (≈ 0.324 µM) in [9] (ATCC 6258, 24 h, pH 7); 2 µg/mL (≈ 1.3 µM) in test [29]; 1 µg/mL (≈ 0.648 µM) in [11] (ATCC 9763, 24 h, pH 7); 2 µg/mL (≈ 1.3 µM) in [30]; 4 µg/mL (≈ 2.59 µM) in test [19] (ATCC 90030, 24 h, pH 7). In test [27], the MICs was no more than 4 µg/mL. For the same compound, the MFC in test [28] was determined as 2 µg/mL (≈ 1.3 µM); in test [31], 16 µg/mL (≈ 10.4 µM); in [32], 128 µg/mL (≈ 82.9 µM); in test [33] it was 8 µg/mL (≈ 5.18 µM); in [34], 32 µg/mL (≈ 20.7 µM). Besides, the IC50 came out at 1390 ± 99 nM in [13] (72 h) and 991 ± 97 nM in test [14] (72 h).

Consider `COc1cc(NS(C)(=O)=O)ccc1Nc1c2ccccc2nc2ccccc12` [m-AMSA], for which, in [35], the IC50 is greater than 200000 nM.
